# Assay results: patent US12534444B2, “Treatment of cancer/inhibition of metastasis” (Celex Oncology Innovations Limited, priority 2010, dated 2026)
# “Also recorded” adds a separate entry of the source.
# Assays:
# Mat-LyLu cells [1] = experiment: Invasion assay (Matrigel Transwell); format: cell-based, rat
# Text: This assay is an extension of the transverse migration assay described above. To “invade”, the cells need both (i) to move as in the transverse migration assay and (ii) secrete a proteolytic enzyme to digest their surroundings. The ability of cells to invade neighbouring tissues by enzyme secretion was therefore assessed by using a layer of Matrigel™ (BD Biosciences) spread across the porous membrane of a Transwell® insert.
# FIG. 7 is a schematic side sectional view of an invasion chamber 701 having a Transwell® insert 702 separating the chamber into upper 703 and lower 704 sections. The insert 702 has a migration filter membrane 705 in its base with 8 μm pores 706 extending therethrough. A layer 707 of Matrigel™ is shown coating the filter membrane 705.
# Cells 708 were plated at a density of 2×10^4/ml onto the Matrigel™ layer 707 in 24-well plates (Becton-Dickinson) according to the manufacturers' instructions. 50 μl Matrigel™ was seeded at a 1:7 dilution (10 mg/ml stock) onto the inserts and left overnight. Prior to seeding with the cells the Matrigel™ was rehydrated using medium with no additions. This medium was removed prior to seeding the cells.
# Cells were plated in a 1-5% FBS chemotactic gradient overnight (12 hours). The nutrient concentration in the medium 709 in the upper section 703 of the chamber was less than the concentration of nutrient in the medium 710 in the lower section 704 to induced movement of the cells through the Matrigel™ layer 707 and through the pores 706 to the underside of the filter membrane 705. At the end of each assay, non-invaded/non-migrated cells were removed from the upper surface of the insert 702 with two different swabs.
# The number of cells invading to the underside of the insert 702 was determined using crystal violet staining. Invaded cells were fixed for 15 minutes with ice-cold methanol. Then 0.5% crystal violet (in 25% methanol) was added for 15 minutes. The inserts were swabbed again and then washed in water and allowed to dry. Cells were then counted using twelve separate fields of view per insert (×200 magnification). If the difference in the average number of cells invading the two control inserts was more than 40%, the experiment was rejected.
# (§1) With the exception of single cell adhesion tests, which are discussed in the following paragraph, experiments were carried out under either; • (i) normal normoxic conditions ([…], 5% carbon dioxide), or • (ii) following 24 hours hypoxic pre-treatment (2% O2, 5% CO2, 93% N2) continued during the assays.
# MDA-MB-231 cells [2] = experiment: Cell viability assay (trypan blue); format: cell-based, human; conditions: Normoxia, 48 hours
# Description: Cells were seeded at a density of 5×10^4 cells/ml in 35 mm Falcon tissue culture dishes. After treatment with a given drug, the medium was removed and replaced with 800 μl of growth medium and 200 μl 0.4% trypan blue (Sigma, Dorset, UK) and incubated for 10 minutes in the incubator. The trypan blue was removed and the cells were washed once with 3 ml growth medium. For each treatment, cells from 30 random fields of view were counted under 100× magnification. The number of dead cells, stained blue, was counted in each field of view. The data were expressed as percentages of living cells out of the total number of cells in given fields of view. The percentages were averaged and differences between control and treatment were compared from at least three independent experiments.
# as §1
# Mat-LyLu cells [3] = experiment: Cell growth (proliferation) assay (MTT); format: cell-based, rat
# Description: Cells were plated at 2×10^4 cells/ml in 24-well plates (Becton-Dickinson) and allowed to settle overnight. The cells were then treated for the required time of incubation (24 hours+), with medium changes every 24 hours. At the end of the treatment, the medium was removed, and this was followed by the colorimetric 3-[4,5-dimethylthiazol-2-yl]-2,5-diphenyltetrazolium bromide (MTT) assay (Grimes et al., 1995). Briefly, 0.1 ml MTT (5 mg/ml made up in the growth medium) and 0.4 ml growth medium was added in each well and the plate was incubated for 3-4 hours at 37° C. The medium was then removed from the chambers and replaced with 0.5 ml dimethyl sulfoxide (DMSO) and 0.063 ml glycine buffer (0.1 M glycine and 0.1 M NaCl; pH 10.5). Absorbance at 570 nm was determined 15 minutes after the addition of the glycine buffer. Results were calculated as means of nine repeats of each of the treatment vs. control spectrophotometer readings from individual invasion wells.
# as §1
# MDA-MB-231 cells [4] = experiment: Lateral motility assay (wound-heal / scratch); format: cell-based, human
# Description: This assay was used to represent the “free” motility of cancer cells during local spreading. FIG. 5(a) is a plan view from above of a cell culture dish 501 having a semi-confluent layer of cells 502 on its surface, the cells being in an aqueous medium 503.
# In order to determine lateral motility, a “wound-heal (“scratch”)” test was carried out, in which a scratch 504 of ˜0.5 mm was made through the layer of cells, as shown in FIG. 5(b) which is a side sectional view of the cell culture dish.
# During the period of 24 hours following the formation of the scratch, the cells moved into the gap.
# FIGS. 5(c) and 5(d) are schematic plan views of the cell culture dish 501 at time t=zero when the width of the scratch 504 is w0 and time t=24 hours when the width of the scratch 504 is w24, respectively.
# as §1
# [5] = Hypoxia, 20 μM, listed as RANOLAZINE
# [6] = Hypoxia, 50 μM, listed as RANOLAZINE
# [7] = Hypoxia, 300 μM, listed as RANOLAZINE
# [8] = Normoxia, 20 μM, listed as RANOLAZINE
# [9] = Normoxia, 50 μM, listed as RANOLAZINE
# [10] = Normoxia, 300 μM, listed as RANOLAZINE
structure (smiles),measurement,setting,value
COc1ccccc1OCC(O)CN1CCN(CC(=O)Nc2c(C)cccc2C)CC1 (stereo not drawn) [ranolazine],INVASIVENESS (no pretreatment),"Mat-LyLu cells [1]; Hypoxia, 20 μM",reduced the migration of the cells in a statistically significant way
same,INVASIVENESS (no pretreatment),Mat-LyLu cells [1]; [5],decreased
same,INVASIVENESS (no pretreatment),"Mat-LyLu cells [1]; Hypoxia, 50 μM",reduced the migration of the cells in a statistically significant way
same,INVASIVENESS (no pretreatment),Mat-LyLu cells [1]; [6],decreased
same,INVASIVENESS (no pretreatment),"Mat-LyLu cells [1]; Hypoxia, 300 μM",reduced the migration of the cells in a statistically significant way
same,INVASIVENESS (no pretreatment),Mat-LyLu cells [1]; [7],decreased
same,INVASIVENESS (no pretreatment),"Mat-LyLu cells [1]; Normoxia, 20 μM",reduced the migration of the cells in a statistically significant way
same,INVASIVENESS (no pretreatment),Mat-LyLu cells [1]; [8],decreased
same,INVASIVENESS (no pretreatment),"Mat-LyLu cells [1]; Normoxia, 50 μM",reduced the migration of the cells in a statistically significant way
same,INVASIVENESS (no pretreatment),Mat-LyLu cells [1]; [9],decreased
same,INVASIVENESS (no pretreatment),"Mat-LyLu cells [1]; Normoxia, 300 μM",reduced the migration of the cells in a statistically significant way
same,INVASIVENESS (no pretreatment),Mat-LyLu cells [1]; [10],decreased
same,potency on invasiveness compared with positive control TTX,"Mat-LyLu cells [1]; higher concentrations tested, TTX 1 μM",more potent than the toxin (TTX)
same,CELL VIABILITY,MDA-MB-231 cells [2]; 1 μM,no effect
same,CELL VIABILITY,MDA-MB-231 cells [2]; 10 μM,no effect
same,CELL VIABILITY,MDA-MB-231 cells [2]; 100 μM,no effect
same,PROLIFERATION (24 hours),"Mat-LyLu cells [3]; Hypoxia, 20 μM",did not result in any statistically significant effect
same,PROLIFERATION (24 hours),Mat-LyLu cells [3]; [5],no effect
same,PROLIFERATION (24 hours),"Mat-LyLu cells [3]; Hypoxia, 50 μM",did not result in any statistically significant effect
same,PROLIFERATION (24 hours),Mat-LyLu cells [3]; [6],no effect
same,PROLIFERATION (24 hours),"Mat-LyLu cells [3]; Hypoxia, 300 μM",reduction in the number of cells
same,PROLIFERATION (24 hours),Mat-LyLu cells [3]; [7],tail off
same,PROLIFERATION (24 hours),"Mat-LyLu cells [3]; Normoxia, 20 μM",did not result in any statistically significant effect
same,PROLIFERATION (24 hours),Mat-LyLu cells [3]; [8],no effect
same,PROLIFERATION (24 hours),"Mat-LyLu cells [3]; Normoxia, 50 μM",did not result in any statistically significant effect
same,PROLIFERATION (24 hours),Mat-LyLu cells [3]; [9],no effect
same,PROLIFERATION (24 hours),"Mat-LyLu cells [3]; Normoxia, 300 μM",did not result in any statistically significant effect
same,PROLIFERATION (24 hours),Mat-LyLu cells [3]; [10],tail off
same,LATERAL MOTILITY,"MDA-MB-231 cells [4]; Hypoxia, 1 μM",statistically significant reduction; also recorded: reduced the lateral motility
same,LATERAL MOTILITY,"MDA-MB-231 cells [4]; Hypoxia, 1 μM, listed as RANOLAZINE",decreased
same,LATERAL MOTILITY,"MDA-MB-231 cells [4]; Hypoxia, 10 μM",statistically significant reduction; also recorded: reduced the lateral motility
same,LATERAL MOTILITY,"MDA-MB-231 cells [4]; Hypoxia, 10 μM, listed as RANOLAZINE",decreased
same,LATERAL MOTILITY,"MDA-MB-231 cells [4]; Hypoxia, 100 μM",statistically significant reduction; also recorded: reduced the lateral motility
same,LATERAL MOTILITY,"MDA-MB-231 cells [4]; Hypoxia, 100 μM, listed as RANOLAZINE",decreased
same,LATERAL MOTILITY,"MDA-MB-231 cells [4]; Normoxia, 1 μM",reduced
same,LATERAL MOTILITY,"MDA-MB-231 cells [4]; Normoxia, 1 μM, listed as RANOLAZINE",decreased
same,LATERAL MOTILITY,"MDA-MB-231 cells [4]; Normoxia, 10 μM",reduced
same,LATERAL MOTILITY,"MDA-MB-231 cells [4]; Normoxia, 10 μM, listed as RANOLAZINE",decreased
same,LATERAL MOTILITY,"MDA-MB-231 cells [4]; Normoxia, 100 μM",reduction at a concentration of 100 μM ranolazine was statistically significant
same,LATERAL MOTILITY,"MDA-MB-231 cells [4]; Normoxia, 100 μM, listed as RANOLAZINE",decreased
Nc1nc2ccc(OC(F)(F)F)cc2s1 [riluzole],INVASIVENESS (no pretreatment),"Mat-LyLu cells [1]; Hypoxia, 1 μM, listed as RILUZOLE",decreased
same,INVASIVENESS (no pretreatment),"Mat-LyLu cells [1]; Hypoxia, 1 μM, listed as Riluzole",significantly inhibited invasiveness
same,INVASIVENESS (no pretreatment),"Mat-LyLu cells [1]; Hypoxia, 2.5 μM",decreased
same,INVASIVENESS (no pretreatment),"Mat-LyLu cells [1]; Hypoxia, 5 μM",decreased
same,INVASIVENESS (no pretreatment),"Mat-LyLu cells [1]; Normoxia, 1 μM, listed as RILUZOLE",decreased
same,INVASIVENESS (no pretreatment),"Mat-LyLu cells [1]; Normoxia, 1 μM, listed as Riluzole",significantly inhibited invasiveness
same,INVASIVENESS (no pretreatment),"Mat-LyLu cells [1]; Normoxia, 2.5 μM",decreased
same,INVASIVENESS (no pretreatment),"Mat-LyLu cells [1]; Normoxia, 5 μM",decreased
same,CELL VIABILITY,MDA-MB-231 cells [2]; 1 μM,no effect
same,CELL VIABILITY,MDA-MB-231 cells [2]; 10 μM,decreased the cell viability
same,CELL VIABILITY,"MDA-MB-231 cells [2]; 10 μM, listed as RILUZOLE",cell death
same,CELL VIABILITY,MDA-MB-231 cells [2]; 100 μM,decreased the cell viability
same,CELL VIABILITY,"MDA-MB-231 cells [2]; 100 μM, listed as RILUZOLE",cell death
same,cell proliferation with increasing concentration,"Mat-LyLu cells [3]; 3 μM, 5 μM, 10 μM and 30 μM, 24 hours, normoxia and hypoxia (2% O2)",decreased cell proliferation dose dependently under both normoxia and hypoxia; the effect was greater under hypoxia
same,PROLIFERATION (24 hours),"Mat-LyLu cells [3]; Hypoxia, 3 μM",no effect
same,PROLIFERATION (24 hours),"Mat-LyLu cells [3]; Hypoxia, 5 μM",tail off
same,PROLIFERATION (24 hours),"Mat-LyLu cells [3]; Hypoxia, 10 μM",tail off
same,PROLIFERATION (24 hours),"Mat-LyLu cells [3]; Hypoxia, 30 μM",tail off
same,PROLIFERATION (24 hours),"Mat-LyLu cells [3]; Normoxia, 3 μM",no effect
same,PROLIFERATION (24 hours),"Mat-LyLu cells [3]; Normoxia, 5 μM",tail off
same,PROLIFERATION (24 hours),"Mat-LyLu cells [3]; Normoxia, 10 μM",tail off
same,PROLIFERATION (24 hours),"Mat-LyLu cells [3]; Normoxia, 30 μM",tail off
same,lateral motility with increasing concentration,"MDA-MB-231 cells [4]; 1 μM, 10 μM and 100 μM, normoxia and hypoxia",reduced the lateral motility of the cells; the effect was greater under hypoxia
same,LATERAL MOTILITY,"MDA-MB-231 cells [4]; Hypoxia, 1 μM",decreased
same,LATERAL MOTILITY,"MDA-MB-231 cells [4]; Hypoxia, 10 μM",decreased
same,LATERAL MOTILITY,"MDA-MB-231 cells [4]; Hypoxia, 100 μM",decreased
same,LATERAL MOTILITY,"MDA-MB-231 cells [4]; Normoxia, 1 μM",no effect
same,LATERAL MOTILITY,"MDA-MB-231 cells [4]; Normoxia, 10 μM",decreased
same,LATERAL MOTILITY,"MDA-MB-231 cells [4]; Normoxia, 100 μM",decreased
